Reference: ChEMBL document CHEMBL3991601, “The target landscape of clinical kinase drugs” (Science, 2017)
The source made the active and inactive calls. For most assays here, no stated cut-off is given here; in the data, actives have a measured Kd and inactives only a lower limit.

Tests used:
[1] = target: Tyrosine-protein kinase Fyn (Homo sapiens, UniProt P06241)
[2] = target: T1, Cyclin-G-associated kinase (Homo sapiens, UniProt O14976)
T1 sequence (O14976 whole entry): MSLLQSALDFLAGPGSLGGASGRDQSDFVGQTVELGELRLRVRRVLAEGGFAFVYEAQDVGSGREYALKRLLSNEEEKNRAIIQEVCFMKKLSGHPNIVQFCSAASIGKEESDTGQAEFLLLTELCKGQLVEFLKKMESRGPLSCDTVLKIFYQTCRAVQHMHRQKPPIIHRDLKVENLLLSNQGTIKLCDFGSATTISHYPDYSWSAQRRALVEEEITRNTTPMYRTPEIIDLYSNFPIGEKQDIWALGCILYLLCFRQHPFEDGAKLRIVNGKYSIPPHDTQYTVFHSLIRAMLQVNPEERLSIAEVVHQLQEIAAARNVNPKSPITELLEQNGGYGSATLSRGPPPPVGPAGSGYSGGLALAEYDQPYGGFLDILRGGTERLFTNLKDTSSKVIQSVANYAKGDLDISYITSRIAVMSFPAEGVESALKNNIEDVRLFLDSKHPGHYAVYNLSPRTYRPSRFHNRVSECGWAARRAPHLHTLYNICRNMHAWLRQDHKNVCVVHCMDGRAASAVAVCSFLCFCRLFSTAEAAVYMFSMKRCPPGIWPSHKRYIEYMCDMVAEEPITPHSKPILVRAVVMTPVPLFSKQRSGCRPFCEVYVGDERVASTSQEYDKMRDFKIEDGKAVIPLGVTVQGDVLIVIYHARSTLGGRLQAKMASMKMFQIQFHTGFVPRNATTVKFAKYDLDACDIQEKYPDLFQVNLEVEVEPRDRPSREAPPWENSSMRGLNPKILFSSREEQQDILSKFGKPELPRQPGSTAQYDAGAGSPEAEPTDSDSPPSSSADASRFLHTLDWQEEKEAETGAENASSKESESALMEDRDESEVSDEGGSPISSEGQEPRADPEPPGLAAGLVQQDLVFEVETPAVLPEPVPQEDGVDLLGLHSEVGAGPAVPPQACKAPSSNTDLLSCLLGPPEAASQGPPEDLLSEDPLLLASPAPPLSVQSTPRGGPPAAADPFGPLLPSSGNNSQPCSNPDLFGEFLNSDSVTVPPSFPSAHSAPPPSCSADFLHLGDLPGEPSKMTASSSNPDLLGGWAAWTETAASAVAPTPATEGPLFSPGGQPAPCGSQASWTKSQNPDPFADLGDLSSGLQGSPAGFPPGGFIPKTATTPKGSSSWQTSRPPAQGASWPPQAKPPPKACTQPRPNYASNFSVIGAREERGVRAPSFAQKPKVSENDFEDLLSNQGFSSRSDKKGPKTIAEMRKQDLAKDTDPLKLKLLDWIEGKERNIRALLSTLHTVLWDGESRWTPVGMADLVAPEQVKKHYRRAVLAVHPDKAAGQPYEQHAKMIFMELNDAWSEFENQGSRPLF

[3] = target: Tyrosine-protein kinase Lyn (Homo sapiens, UniProt P07948)
Tyrosine-protein kinase Lyn, sequence (P07948 whole entry): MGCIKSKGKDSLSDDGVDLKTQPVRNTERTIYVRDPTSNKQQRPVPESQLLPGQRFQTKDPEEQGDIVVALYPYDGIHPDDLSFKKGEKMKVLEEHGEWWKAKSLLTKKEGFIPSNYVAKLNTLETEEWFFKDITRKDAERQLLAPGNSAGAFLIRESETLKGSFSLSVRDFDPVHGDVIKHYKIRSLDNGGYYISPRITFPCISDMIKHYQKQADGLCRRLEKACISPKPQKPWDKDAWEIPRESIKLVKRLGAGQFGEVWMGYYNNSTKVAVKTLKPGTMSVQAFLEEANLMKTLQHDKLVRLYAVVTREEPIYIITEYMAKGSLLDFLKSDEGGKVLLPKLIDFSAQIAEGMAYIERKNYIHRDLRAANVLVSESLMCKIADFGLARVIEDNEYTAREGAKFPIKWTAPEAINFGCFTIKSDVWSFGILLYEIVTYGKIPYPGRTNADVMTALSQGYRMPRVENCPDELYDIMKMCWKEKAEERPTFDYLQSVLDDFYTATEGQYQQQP

[4] = target: T2, Mitogen-activated protein kinase kinase kinase kinase 2 (Homo sapiens, UniProt Q12851)
T2 sequence (Q12851 whole entry): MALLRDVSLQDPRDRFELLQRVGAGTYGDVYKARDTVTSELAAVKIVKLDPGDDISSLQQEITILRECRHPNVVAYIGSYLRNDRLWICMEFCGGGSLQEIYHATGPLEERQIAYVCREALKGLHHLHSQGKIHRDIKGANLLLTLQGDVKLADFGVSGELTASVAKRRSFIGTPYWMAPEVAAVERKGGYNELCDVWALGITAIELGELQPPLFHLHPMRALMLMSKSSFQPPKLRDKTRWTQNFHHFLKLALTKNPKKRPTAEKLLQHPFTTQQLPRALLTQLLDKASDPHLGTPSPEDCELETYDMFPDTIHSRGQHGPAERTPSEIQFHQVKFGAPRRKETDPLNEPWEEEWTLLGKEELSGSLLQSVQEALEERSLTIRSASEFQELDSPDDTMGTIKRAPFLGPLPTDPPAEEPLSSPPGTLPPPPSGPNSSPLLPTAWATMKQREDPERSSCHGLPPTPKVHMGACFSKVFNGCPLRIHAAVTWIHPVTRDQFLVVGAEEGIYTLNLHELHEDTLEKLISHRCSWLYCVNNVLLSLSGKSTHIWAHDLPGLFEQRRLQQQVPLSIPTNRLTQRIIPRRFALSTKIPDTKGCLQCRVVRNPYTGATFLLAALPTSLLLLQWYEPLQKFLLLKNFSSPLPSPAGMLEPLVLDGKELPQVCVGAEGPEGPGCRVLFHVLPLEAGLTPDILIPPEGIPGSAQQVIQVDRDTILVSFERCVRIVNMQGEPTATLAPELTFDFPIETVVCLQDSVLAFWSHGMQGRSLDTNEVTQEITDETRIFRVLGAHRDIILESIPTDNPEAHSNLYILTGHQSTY

[5] = target: S-adenosylmethionine synthase isoform type-2 (Homo sapiens, UniProt P31153)
S-adenosylmethionine synthase isoform type-2, sequence (P31153 whole entry, canonical isoform): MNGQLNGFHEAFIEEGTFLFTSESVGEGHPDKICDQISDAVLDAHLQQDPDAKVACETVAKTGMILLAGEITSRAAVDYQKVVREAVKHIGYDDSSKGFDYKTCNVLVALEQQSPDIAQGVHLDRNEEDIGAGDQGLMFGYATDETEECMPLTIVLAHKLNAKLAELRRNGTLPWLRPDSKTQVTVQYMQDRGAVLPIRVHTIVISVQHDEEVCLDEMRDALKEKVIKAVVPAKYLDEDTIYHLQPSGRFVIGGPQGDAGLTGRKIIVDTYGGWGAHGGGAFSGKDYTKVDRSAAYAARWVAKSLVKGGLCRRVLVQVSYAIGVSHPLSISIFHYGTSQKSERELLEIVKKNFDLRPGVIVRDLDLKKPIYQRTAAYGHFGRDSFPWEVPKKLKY

[6] = target: Serine/threonine-protein kinase N1 (Homo sapiens, UniProt Q16512)
Serine/threonine-protein kinase N1, sequence (Q16512 whole entry): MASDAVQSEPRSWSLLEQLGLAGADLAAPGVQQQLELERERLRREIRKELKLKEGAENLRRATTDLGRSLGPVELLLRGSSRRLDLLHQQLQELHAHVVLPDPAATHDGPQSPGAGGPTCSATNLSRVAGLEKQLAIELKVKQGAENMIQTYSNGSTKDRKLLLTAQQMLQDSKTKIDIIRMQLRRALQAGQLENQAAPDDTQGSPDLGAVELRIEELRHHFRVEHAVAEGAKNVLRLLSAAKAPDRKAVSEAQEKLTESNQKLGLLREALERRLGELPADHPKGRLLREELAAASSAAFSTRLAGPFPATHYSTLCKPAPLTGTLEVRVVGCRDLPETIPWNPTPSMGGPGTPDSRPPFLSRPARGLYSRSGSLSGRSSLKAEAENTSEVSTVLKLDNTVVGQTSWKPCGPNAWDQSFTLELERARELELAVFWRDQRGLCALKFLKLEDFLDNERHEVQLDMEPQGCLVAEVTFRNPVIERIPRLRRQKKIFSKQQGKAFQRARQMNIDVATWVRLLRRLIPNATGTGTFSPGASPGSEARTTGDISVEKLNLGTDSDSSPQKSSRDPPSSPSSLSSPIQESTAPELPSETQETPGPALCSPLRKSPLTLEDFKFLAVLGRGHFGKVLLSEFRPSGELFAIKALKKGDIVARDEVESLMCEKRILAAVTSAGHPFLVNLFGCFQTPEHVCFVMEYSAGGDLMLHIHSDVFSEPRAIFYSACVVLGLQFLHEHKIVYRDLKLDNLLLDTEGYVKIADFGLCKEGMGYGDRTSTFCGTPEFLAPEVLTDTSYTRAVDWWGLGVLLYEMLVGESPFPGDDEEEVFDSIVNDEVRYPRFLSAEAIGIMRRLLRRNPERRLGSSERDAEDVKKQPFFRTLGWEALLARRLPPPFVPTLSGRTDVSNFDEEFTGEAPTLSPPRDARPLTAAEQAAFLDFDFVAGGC

[7] = target: Receptor-interacting serine/threonine-protein kinase 3 (Homo sapiens, UniProt Q9Y572)
Receptor-interacting serine/threonine-protein kinase 3, sequence (Q9Y572 whole entry): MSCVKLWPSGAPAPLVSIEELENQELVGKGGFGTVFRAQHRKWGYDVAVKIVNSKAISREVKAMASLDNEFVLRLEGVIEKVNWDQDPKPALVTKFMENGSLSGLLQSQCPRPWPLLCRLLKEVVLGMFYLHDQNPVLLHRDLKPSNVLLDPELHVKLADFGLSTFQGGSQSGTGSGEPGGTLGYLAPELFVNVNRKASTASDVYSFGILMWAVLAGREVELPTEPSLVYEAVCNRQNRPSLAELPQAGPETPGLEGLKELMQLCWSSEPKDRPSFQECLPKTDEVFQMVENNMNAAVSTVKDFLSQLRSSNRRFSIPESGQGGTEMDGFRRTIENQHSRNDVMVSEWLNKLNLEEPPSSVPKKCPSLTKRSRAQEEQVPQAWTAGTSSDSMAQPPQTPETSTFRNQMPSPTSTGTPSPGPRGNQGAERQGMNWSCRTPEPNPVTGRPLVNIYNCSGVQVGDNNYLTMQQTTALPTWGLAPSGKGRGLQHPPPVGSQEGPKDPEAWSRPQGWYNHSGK

[8] = target: Ribosomal protein S6 kinase alpha-1 (Homo sapiens, UniProt Q15418)
[9] = target: Serine/threonine-protein kinase 10 (Homo sapiens, UniProt O94804)
Serine/threonine-protein kinase 10, sequence (O94804 whole entry): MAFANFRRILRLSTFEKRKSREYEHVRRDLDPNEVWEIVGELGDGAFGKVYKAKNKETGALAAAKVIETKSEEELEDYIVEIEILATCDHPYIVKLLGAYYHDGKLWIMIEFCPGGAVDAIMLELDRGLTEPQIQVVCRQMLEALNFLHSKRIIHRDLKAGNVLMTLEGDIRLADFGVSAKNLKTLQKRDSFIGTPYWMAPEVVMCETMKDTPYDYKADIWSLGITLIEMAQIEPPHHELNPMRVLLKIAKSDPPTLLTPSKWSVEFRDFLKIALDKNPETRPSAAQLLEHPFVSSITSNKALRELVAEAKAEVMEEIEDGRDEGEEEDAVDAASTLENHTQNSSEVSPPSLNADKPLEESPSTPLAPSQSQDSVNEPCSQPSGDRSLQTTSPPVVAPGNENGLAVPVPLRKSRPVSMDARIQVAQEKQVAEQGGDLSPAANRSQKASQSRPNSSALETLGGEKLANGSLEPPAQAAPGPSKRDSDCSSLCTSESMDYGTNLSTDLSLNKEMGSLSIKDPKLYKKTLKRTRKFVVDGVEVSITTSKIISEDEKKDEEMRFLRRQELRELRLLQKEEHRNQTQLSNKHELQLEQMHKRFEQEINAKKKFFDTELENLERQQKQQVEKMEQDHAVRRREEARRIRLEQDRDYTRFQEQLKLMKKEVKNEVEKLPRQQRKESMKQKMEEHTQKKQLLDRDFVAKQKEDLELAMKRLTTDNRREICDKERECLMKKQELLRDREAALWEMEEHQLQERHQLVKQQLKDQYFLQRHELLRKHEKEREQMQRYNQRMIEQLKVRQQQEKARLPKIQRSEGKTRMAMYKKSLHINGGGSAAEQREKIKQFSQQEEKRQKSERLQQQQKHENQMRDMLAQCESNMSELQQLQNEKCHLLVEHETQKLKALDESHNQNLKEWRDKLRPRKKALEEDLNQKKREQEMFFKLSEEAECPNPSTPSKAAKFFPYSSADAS

[10] = target: T3, Serine/threonine-protein kinase STK11 (Homo sapiens, UniProt Q15831)
T3 sequence (Q15831 whole entry): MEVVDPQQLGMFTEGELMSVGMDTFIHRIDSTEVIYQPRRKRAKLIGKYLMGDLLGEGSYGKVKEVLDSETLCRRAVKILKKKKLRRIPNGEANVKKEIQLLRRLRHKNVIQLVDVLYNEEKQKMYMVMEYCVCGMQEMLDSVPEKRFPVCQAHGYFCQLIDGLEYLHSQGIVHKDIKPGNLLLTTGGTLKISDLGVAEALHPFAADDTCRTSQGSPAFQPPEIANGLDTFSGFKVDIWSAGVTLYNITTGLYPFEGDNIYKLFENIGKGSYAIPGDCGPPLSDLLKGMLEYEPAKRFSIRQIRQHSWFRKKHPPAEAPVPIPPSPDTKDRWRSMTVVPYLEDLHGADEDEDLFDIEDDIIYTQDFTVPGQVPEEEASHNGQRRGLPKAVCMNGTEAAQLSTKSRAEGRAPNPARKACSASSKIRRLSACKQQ

[11] = target: TGF-beta receptor type-2 (Homo sapiens, UniProt P37173)
TGF-beta receptor type-2, sequence (P37173 whole entry): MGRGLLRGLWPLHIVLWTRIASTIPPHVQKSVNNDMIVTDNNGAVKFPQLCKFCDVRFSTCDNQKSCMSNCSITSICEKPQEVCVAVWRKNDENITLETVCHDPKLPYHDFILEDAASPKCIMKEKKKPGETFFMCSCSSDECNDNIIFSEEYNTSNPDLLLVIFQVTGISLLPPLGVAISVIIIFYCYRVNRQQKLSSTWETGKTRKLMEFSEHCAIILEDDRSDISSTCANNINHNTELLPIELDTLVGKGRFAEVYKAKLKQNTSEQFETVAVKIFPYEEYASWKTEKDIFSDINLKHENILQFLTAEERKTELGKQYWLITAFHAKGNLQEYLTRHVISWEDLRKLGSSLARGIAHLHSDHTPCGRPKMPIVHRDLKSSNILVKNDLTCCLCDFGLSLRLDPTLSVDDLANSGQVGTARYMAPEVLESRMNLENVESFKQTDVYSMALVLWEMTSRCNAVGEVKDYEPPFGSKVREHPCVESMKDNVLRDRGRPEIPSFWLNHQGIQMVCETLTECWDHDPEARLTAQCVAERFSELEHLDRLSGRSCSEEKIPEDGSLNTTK

Tyrosine-protein kinase Fyn, sequence (P06241 whole entry): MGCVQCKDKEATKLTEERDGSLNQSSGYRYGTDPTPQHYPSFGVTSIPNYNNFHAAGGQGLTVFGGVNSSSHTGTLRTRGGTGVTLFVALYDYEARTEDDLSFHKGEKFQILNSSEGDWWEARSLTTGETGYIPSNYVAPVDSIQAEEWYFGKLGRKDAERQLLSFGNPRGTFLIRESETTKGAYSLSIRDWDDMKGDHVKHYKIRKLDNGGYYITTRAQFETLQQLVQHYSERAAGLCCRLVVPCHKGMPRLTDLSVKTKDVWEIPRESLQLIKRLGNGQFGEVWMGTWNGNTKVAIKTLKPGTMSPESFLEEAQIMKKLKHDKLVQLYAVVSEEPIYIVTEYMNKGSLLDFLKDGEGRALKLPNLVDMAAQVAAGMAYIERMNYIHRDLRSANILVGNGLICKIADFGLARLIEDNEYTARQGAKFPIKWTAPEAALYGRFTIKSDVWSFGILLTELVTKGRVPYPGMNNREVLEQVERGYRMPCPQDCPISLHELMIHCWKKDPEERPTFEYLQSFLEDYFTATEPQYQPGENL

Row | Kd [1] | Kd [2] | Kd [3] | Kd [4] | Kd [5] | Kd [6] | Kd [7] | Kd [8] | Kd [9] | Kd [10] | Kd [11] | Compound
1 | > 30 µM (inactive) | > 30 µM (inactive) | > 30 µM (inactive) | > 30 µM (inactive) | > 30 µM (inactive) | > 30 µM (inactive) | > 30 µM (inactive) | > 30 µM (inactive) | > 30 µM (inactive) | > 30 µM (inactive) | > 30 µM (inactive) | Cc1ccc(S(=O)(=O)Nc2nc3ccccc3nc2Nc2ccc3nsnc3c2)cc1
2 | > 30 µM (inactive) | > 30 µM (inactive) | > 30 µM (inactive) | 3.53 µM (active) | > 30 µM (inactive) | > 30 µM (inactive) | > 30 µM (inactive) | > 30 µM (inactive) | 42.6 µM (active) | > 30 µM (inactive) | > 30 µM (inactive) | CCN1CCN(Cc2ccc(-c3cc4c(N[C@H](C)c5ccccc5)ncnc4[nH]3)cc2)CC1 [AEE-788]
3 | > 30 µM (inactive) | > 30 µM (inactive) | > 30 µM (inactive) | > 30 µM (inactive) | > 30 µM (inactive) | 0.88 µM (active) | > 30 µM (inactive) | > 30 µM (inactive) | > 30 µM (inactive) | > 30 µM (inactive) | > 30 µM (inactive) | Cn1ncc(Cl)c1-c1cc(C(=O)N[C@H](CN)Cc2cccc(F)c2)sc1Cl [AFURESERTIB]
4 | 1.53 µM (active) | 2.82 µM (active) | > 30 µM (inactive) | > 30 µM (inactive) | > 30 µM (inactive) | > 30 µM (inactive) | > 30 µM (inactive) | > 30 µM (inactive) | 23.7 µM (active) | > 30 µM (inactive) | > 30 µM (inactive) | COc1cc(N2CCC(N3CCN(C)CC3)CC2)ccc1Nc1ncnc(Nc2ccccc2S(=O)(=O)C(C)C)n1 [ASP-3026]
5 | > 30 µM (inactive) | > 30 µM (inactive) | > 30 µM (inactive) | > 30 µM (inactive) | > 30 µM (inactive) | > 30 µM (inactive) | > 30 µM (inactive) | > 30 µM (inactive) | > 30 µM (inactive) | > 30 µM (inactive) | > 30 µM (inactive) | CNS(=O)(=O)Nc1nccc(Cc2c(C)c3ccc(Oc4ncccn4)cc3oc2=O)c1F [AVUTOMETINIB]
6 | > 30 µM (inactive) | > 30 µM (inactive) | > 30 µM (inactive) | > 30 µM (inactive) | > 30 µM (inactive) | > 30 µM (inactive) | > 30 µM (inactive) | > 30 µM (inactive) | > 30 µM (inactive) | > 30 µM (inactive) | > 30 µM (inactive) | Cc1cc([C@@H](C)Nc2ccccc2C(=O)O)c2nc(N3CCOCC3)cc(=O)n2c1 [AZD-6482]
7 | > 30 µM (inactive) |  | > 30 µM (inactive) | > 30 µM (inactive) | > 30 µM (inactive) | 0.104 µM (active) | > 30 µM (inactive) | > 30 µM (inactive) | > 30 µM (inactive) | > 30 µM (inactive) | > 30 µM (inactive) | CCS(=O)(=O)N1CC(CC#N)(n2cc(-c3ncnc4[nH]ccc34)cn2)C1 [BARICITINIB]
8 | 1.24 µM (active) | > 30 µM (inactive) |  | > 30 µM (inactive) | > 30 µM (inactive) | > 30 µM (inactive) | > 30 µM (inactive) | > 30 µM (inactive) | > 30 µM (inactive) | > 30 µM (inactive) | > 30 µM (inactive) | COCCNCc1ccc(-c2cc3nccc(Oc4ccc(NC(=S)NC(=O)Cc5ccc(F)cc5)cc4F)c3s2)nc1 [GLESATINIB]
9 | > 30 µM (inactive) |  | > 30 µM (inactive) | 0.578 µM (active) | > 30 µM (inactive) | > 30 µM (inactive) | 0.316 µM (active) |  | 0.793 µM (active) | > 30 µM (inactive) | > 30 µM (inactive) | COc1cc2nccc(Oc3ccc(NC(=O)NC4CC4)c(Cl)c3)c2cc1C(N)=O [LENVATINIB]
10 | > 30 µM (inactive) | > 30 µM (inactive) | > 30 µM (inactive) | > 30 µM (inactive) |  | > 30 µM (inactive) | > 30 µM (inactive) | > 30 µM (inactive) | > 30 µM (inactive) | > 30 µM (inactive) | > 30 µM (inactive) | Cc1c(F)cc(C(=O)NC2CC2)cc1-c1ccc(C(=O)NCC(C)(C)C)cn1 [LOSMAPIMOD]
11 | > 30 µM (inactive) | > 30 µM (inactive) | > 30 µM (inactive) | > 30 µM (inactive) |  | > 30 µM (inactive) | > 30 µM (inactive) | > 30 µM (inactive) | > 30 µM (inactive) | > 30 µM (inactive) | > 30 µM (inactive) | Cn1cc(-c2ccc(F)c(C(F)(F)F)c2)nc1C1CCN(c2ncnc3[nH]ncc23)CC1 [LY-2584702]

Row | Compound | Kd [1] | Kd [2] | Kd [3] | Kd [4] | Kd [5] | Kd [6] | Kd [7] | Kd [8] | Kd [9] | Kd [10] | Kd [11]
12 | CN1CC[C@@H](c2c(O)cc(O)c3c(=O)cc(-c4ccccc4Cl)oc23)[C@@H]1CO | > 30 µM (inactive) | > 30 µM (inactive) | > 30 µM (inactive) | > 30 µM (inactive) | > 30 µM (inactive) | > 30 µM (inactive) | > 30 µM (inactive) | > 30 µM (inactive) | > 30 µM (inactive) | > 30 µM (inactive) | > 30 µM (inactive)
13 | Cc1cc(-c2cc(O)ccc2Cl)cc2nnc(Nc3ccc(OCCN4CCCC4)cc3)nc12 | > 30 µM (inactive) | 0.002 µM (active) | > 30 µM (inactive) | > 30 µM (inactive) | > 30 µM (inactive) | > 30 µM (inactive) | 0.003 µM (active) | > 30 µM (inactive) | > 30 µM (inactive) | > 30 µM (inactive) | > 30 µM (inactive)
